Data published in patent publication US7465814B2, “Sulfonate compound and fluorescent probe using the same” (priority 2003, dated 2008).

How the values were obtained:
[1] = Capability as superoxide-detecting fluorescent probe (reactivity with superoxide); type: biochemical; conditions: tested similarly to the compound 1d
Procedure: Then, by mainly using the compound 1d as a testing compound, the capability thereof as a superoxide-selective fluorescent probe was evaluated, and moreover, a test in a cell system also was conducted. These tests will be described below.
Thus, it is thought that each compound synthesized from a combination of: a phenolic colorant; and a 2,4-dinitrobenzenesulfonyl group, a 4-trifluoromethyl-2-nitrobenzenesulfonyl group or a 4-nitrobenzenesulfonyl group can be used as a superoxide-detecting fluorescent probe similarly. An example of the usage thereof will be shown in Scheme 8 below. Furthermore, it can be expected that a compound for a fluorescent probe having characteristics that are suitable for its application purpose can be designed and developed freely, by designing the compound of the present invention freely within the limitation defined by the general formula (I) and using the fluorescence mechanism developed by the inventors of the present invention, without being limited to the above-described combinations. Examples of the application purpose of the compound of the present invention are varied, including an application to a faintly coloring technique using superoxide.

[2] = Reactivity with superoxide and glutathione (FIG. 4); type: biochemical; conditions: for selectivity (specificity), superoxide versus glutathione, FIG. 4: same conditions as 1-3 Superoxide-selectivity (2)
Procedure: (§1) Moreover, in other conditions than those of the above-described tests, reactivity of all of the compounds 1a to 1d with H2O2, other various kinds of nucleophilic agents, reducing agents and the like also was tested, respectively. More specifically, fluorescent responses of 1a to 1d with respect to a XO-HPX system, a XO-HPX-SOD system, H2O2, ascorbic acid, 1,4-hydroquinone, propylamine, diethylamine, glucose, esterase, a cytochrome P450 reductase+NADPH system, and a diaphorase+NADH system were measured, respectively. Operational processes thereof will be described below. Firstly, 1a to 1d and the above-described reagents were dissolved in HEPES of 10 mM having a pH of 7.4 so as to prepare solutions, respectively. Next, a 96 wellmicroplate was provided, where any of the solutions of 1a to 1d (25 μM, 170 μL) was poured into each of the wells, and furthermore, 30 μL of a blank solution or 30 μL of the solution of the reagent to be reacted therewith was added thereto. Final concentrations of the solutions in the wells were adjusted so that concentrations of the solutions of 1a to 1d respectively could be 21.3 μM, that of XO could be 13.1 mU/mL, those of HPX, H2O2, ascorbic acid, 1,4-hydroquinone, propylamine, diethylamine, glucose, NADPH and NADH respectively could be 50 μM, that of cytochrome P450 reductase could be 68 mU/mL, that of diaphorase could be 65 mU/mL, and that of esterase could be 0.5 U/mL, respectively. Then, after they reacted in the wells at 37° C. for 10 minutes, fluorescent responses were measured respectively. Fluorescence intensity measurement was conducted by using an ETC-272 Peltier thermostatted single cell holder (trade name) manufactured by JASCO Corporation or a SpectraMax GeminiEM fluorescence plate reader (trade name) manufactured by Molecular Devices Corporation provided with a FP-750 spectrofluorometer (trade name) manufactured by JASCO Corporation, and by setting excitation wavelengths and emission wavelengths so that those of 1a, 1b and 1c respectively could be 485 nm and 515 nm, and those of 1d respectively could be 511 nm and 540 nm.
(§2) The reactivity of each of the compounds 1d, 5a, 6a, 7 and 8a with respect to superoxide and glutathione (GSH) that is a kind of thiol was tested under the same conditions as those of [1-3. Superoxide-selectivity (2)] in Example 1. […] A vertical axis thereof denotes a fluorescence intensity, which is represented in % of control.

[3] = Fluorescence response to thiophosphonate group (FIG. 8); type: biochemical; conditions: for response to thiol group in thiophosphonate group: γ-S-ATP and adenosine monothiophosphate (S-AMP); for sensitivity of γ-S-ATP detection relative to 8a: similar tests
Description: Moreover, a capability of the sulfonate compound of the present invention as a fluorescent probe for mercapto compounds other than thiol (a compound in which a —SH group is bonded to a carbon atom) was examined. […]

[4] = Responses to the compounds listed in Table 1; type: biochemical; conditions: same conditions as Example 1
Procedure: as §1, §2

[5] = Fluorescent response to propylamine (Table 1); type: biochemical; conditions: relative fluorescence intensity, blank = 10; probe 21.3 μM, propylamine 50 μM, 37° C., 10 minutes
Procedure: as §1

[6] = tested on: esterase; experiment: Fluorescent response to esterase (Table 1); type: biochemical; conditions: relative fluorescence intensity, blank = 10; probe 21.3 μM, esterase 0.5 U/mL, 37° C., 10 minutes
Procedure: as §1

[7] = Fluorescent response to 1,4-hydroquinone (Table 1); type: biochemical; conditions: relative fluorescence intensity, blank = 10; probe 21.3 μM, 1,4-hydroquinone 50 μM, 37° C., 10 minutes
Procedure: as §1

[8] = Fluorescent response to diethylamine (Table 1); type: biochemical; conditions: relative fluorescence intensity, blank = 10; probe 21.3 μM, diethylamine 50 μM, 37° C., 10 minutes
Procedure: as §1

[9] = Fluorescent response to H2O2 (Table 1); type: biochemical; conditions: relative fluorescence intensity, blank = 10; probe 21.3 μM, H2O2 50 μM, 37° C., 10 minutes
Procedure: as §1

[10] = Fluorescent response to glucose (Table 1); type: biochemical; conditions: relative fluorescence intensity, blank = 10; probe 21.3 μM, glucose 50 μM, 37° C., 10 minutes
Procedure: as §1

[11] = Fluorescent response to ascorbic acid (Table 1); type: biochemical; conditions: relative fluorescence intensity, blank = 10; probe 21.3 μM, ascorbic acid 50 μM, 37° C., 10 minutes
Procedure: as §1

[12] = Voltammetry measurement; type: physicochemical; conditions: CH3CN—H2O (3:1) containing Et4NClO4
[13] = Fluorescent response to XO-HPX system, 96-well microplate (Table 1); type: biochemical; conditions: relative fluorescence intensity, blank = 10, probe 21.3 μM, 10 minutes; for fluorescent response, XO—HPX: XO 13.1 mU/mL, HPX 50 μM, HEPES pH 7.4, 37° C.; for fluorescent response, XO—HPX—SOD: XO-HPX with SOD, 37° C.
Procedure: as §1

[14] = tested on: neutrophils
Procedure: Moreover, a toxicity of the compound 1d with respect to the neutrophils was evaluated by estimating cell viability by a trypan blue dyeing method. More specifically, the neutrophils (1.0×10^5 cells) were incubated at 37° C. for 120 minutes in a glass test tube coated with human serum albumin, in the presence of both of the compound 1d (6.25 μM) and PMA (0.16 μM), in the presence of either of them, and in the absence of them, respectively. Then, cell viability after the incubation with respect to cell viability before the incubation was measured.

O=C(O)c1ccccc1-c1c2cc(F)c(=O)c(F)c-2oc2c(F)c(OS(=O)(=O)c3ccc(C(F)(F)F)cc3[N+](=O)[O-])c(F)cc12 [Compound 4a]
deprotection by superoxide into the corresponding fluorochrome [1]: deprotected by superoxide

O=c1cc(C(F)(F)F)c2ccc(OS(=O)(=O)c3ccc(C(F)(F)F)cc3[N+](=O)[O-])cc2o1 [Compound 6b]
deprotection by superoxide into the corresponding fluorochrome [1]: deprotected by superoxide

O=c1ccc2nc3ccc(OS(=O)(=O)c4ccc(C(F)(F)F)cc4[N+](=O)[O-])cc3oc-2c1 [Compound 5b]
deprotection by superoxide into the corresponding fluorochrome [1]: deprotected by superoxide

O=c1ccc2nc3ccc(OS(=O)(=O)c4ccc([N+](=O)[O-])cc4[N+](=O)[O-])cc3oc-2c1 [Compound 5a]
deprotection by superoxide into the corresponding fluorochrome [1]: deprotected by superoxide
selectivity (specificity), superoxide versus glutathione, FIG. 4 [2]: excellent mercapto compound-selectivity
response to thiol group in thiophosphonate group [3]: responded to a thiol group in a so-called thiophosphonate group
response with respect to each of the compounds listed in Table 1 [4]: almost no response

O=C1OC2(c3cc(Cl)c(OS(=O)(=O)c4ccc([N+](=O)[O-])cc4[N+](=O)[O-])cc3Oc3cc(OS(=O)(=O)c4ccc([N+](=O)[O-])cc4[N+](=O)[O-])c(Cl)cc32)c2ccccc21 [Compound 1b]
fluorescent response, propylamine [5]: 10
fluorescent response, esterase [6]: 20
fluorescent response, 1,4-hydroquinone [7]: 11
fluorescent response, diethylamine [8]: 10
fluorescent response, H2O2 [9]: 11
fluorescent response, glucose [10]: 10
fluorescent response, ascorbic acid [11]: 11
cathode response [12]: about −0.5 V vs SCE
fluorescent response, XO—HPX [13]: 288
fluorescent response, XO—HPX—SOD [13]: 22

O=C1OC2(c3ccc(OS(=O)(=O)c4ccc([N+](=O)[O-])cc4[N+](=O)[O-])cc3Oc3cc(OS(=O)(=O)c4ccc([N+](=O)[O-])cc4[N+](=O)[O-])ccc32)c2ccccc21 [Compound 1a]
fluorescent response, propylamine [5]: 10
fluorescent response, esterase [6]: 17
fluorescent response, 1,4-hydroquinone [7]: 10
fluorescent response, diethylamine [8]: 11
fluorescent response, H2O2 [9]: 10
fluorescent response, glucose [10]: 10
fluorescent response, ascorbic acid [11]: 10
cathode response [12]: about −0.5 V vs SCE
fluorescent response, XO—HPX [13]: 70
fluorescent response, XO—HPX—SOD [13]: 12

O=C(O)c1ccccc1-c1c2cc(F)c(=O)c(F)c-2oc2c(F)c(OS(=O)(=O)c3ccc([N+](=O)[O-])cc3)c(F)cc12 [Compound 4b]
deprotection by superoxide into the corresponding fluorochrome [1]: deprotected by superoxide

Cc1c2oc3c(C)c(OS(=O)(=O)c4ccc([N+](=O)[O-])cc4[N+](=O)[O-])ccc3c(-c3ccccc3C(=O)O)c-2ccc1=O [Compound 8c]
response to glutathione [2]: responded to glutathione with high sensitivity
sensitivity of γ-S-ATP detection relative to 8a [3]: sensitivity still higher than that of 8a
response with respect to each of the compounds listed in Table 1 [4]: almost no response

O=C1OC2(c3ccccc31)c1cc(F)c(OS(=O)(=O)c3ccc(C(F)(F)F)cc3[N+](=O)[O-])c(F)c1Oc1c2cc(F)c(OS(=O)(=O)c2ccc(C(F)(F)F)cc2[N+](=O)[O-])c1F [Compound 3]
deprotection by superoxide into the corresponding fluorochrome [1]: deprotected by superoxide

O=C1OC2(c3cc(F)c(OS(=O)(=O)c4ccc([N+](=O)[O-])cc4[N+](=O)[O-])cc3Oc3cc(OS(=O)(=O)c4ccc([N+](=O)[O-])cc4[N+](=O)[O-])c(F)cc32)c2ccccc21 [Compound 1c]
fluorescent response, propylamine [5]: 10
fluorescent response, esterase [6]: 23
fluorescent response, 1,4-hydroquinone [7]: 10
fluorescent response, diethylamine [8]: 10
fluorescent response, H2O2 [9]: 11
fluorescent response, glucose [10]: 10
fluorescent response, ascorbic acid [11]: 11
cathode response [12]: about −0.5 V vs SCE
fluorescent response, XO—HPX [13]: 797
fluorescent response, XO—HPX—SOD [13]: 48

Cc1cc(=O)oc2cc(OS(=O)(=O)c3ccc([N+](=O)[O-])cc3[N+](=O)[O-])ccc12 [Compound 7]
selectivity (specificity), superoxide versus glutathione, FIG. 4 [2]: excellent mercapto compound-selectivity
response to thiol group in thiophosphonate group [3]: responded to a thiol group in a so-called thiophosphonate group
response with respect to each of the compounds listed in Table 1 [4]: almost no response

Cc1cc2c(-c3ccccc3C(=O)O)c3cc(C)c(=O)cc-3oc2cc1OS(=O)(=O)c1ccc([N+](=O)[O-])cc1[N+](=O)[O-] [Compound 8b]
response to glutathione [2]: responded to glutathione with high sensitivity
sensitivity of γ-S-ATP detection relative to 8a [3]: sensitivity still higher than that of 8a
response with respect to each of the compounds listed in Table 1 [4]: almost no response

CCCCCCCCCCCCCC(=O)O[C@@H]1[C@@H](C)[C@@]2(O)[C@@H](C=C(CO)C[C@]3(O)C(=O)C(C)=C[C@@H]23)[C@@H]2C(C)(C)[C@]12OC(C)=O [PMA, phorbol myristate acetate, reference compound]
toxicity with respect to the neutrophils ([14]; incubation of 120 minutes): did not show any significant toxicity
cell viability after the incubation with respect to before the incubation ([14]; substance only (1d 6.25 μM or PMA 0.16 μM), 1.0×10^5 neutrophils, 37° C., 120 minutes): 93%
